The subject of series [1] is MB231, HT1080, MB231-4175. Briefly: Cell tests (toxicity/viability) for various cell types at 0-200 μM peptide after 60 min of incubation. The conditions noted are these: in general, toxicity depends on cell type; 60 min incubation; FIG. 5A. Type of series: cell-based. The method, then: As shown in FIG. 5A toxicity depends on the cell type, however in general cells are viable under 100 μM of peptide incubation (NapFFK(NBD)Yp). […] Thus, EV generation can be amplified as low as 5 μM of peptide incubation and shorter times to be effective.

Series [2] concerns MDA-MB231 breast cancer cells. The series can be described thus: Cell death of the cells used for EV production at high peptide concentration. It counts as cell-based. Conditions: the particular cells used for EV production. An excerpt:
The NTA can also determine the average diameter of released EVs. While the increase of polymer concentration in parental cells increases the number of released EVs, the size of EVs is constant regardless of the polypeptide concentration in parental cells (FIG. 3B, FIG. 3C, FIG. 3D, FIG. 3E). The increased number of released EVs can also be confirmed by the increase of fluorescence intensity of collected EVs (FIG. 3F), measured by fluorescence spectrometer. […] In one embodiment, production is enhanced by at least 50% relative to the control. […] The particular cells used experienced cell death at concentrations above 500 μM of NapFFKYp-NBD. Alternative upper limits may be possible for other cell line and other polypeptide precursors.

Non-standard residues stand in square brackets, D forms with d. Residues, ends and D or L forms follow the SMILES beside them. *: point of attachment. Acetyl(2-naphthyl) = O=C(Cc1ccc2ccccc2c1)*; pY = N[C@@H](Cc1ccc(OP(=O)(O)O)cc1)C(=O)O; NBD = O=[N+]([O-])c1ccc(*)c2nonc12

With `O=C(Cc1ccc2ccccc2c1)N[C@@H](Cc1ccccc1)C(=O)N[C@@H](Cc1ccccc1)C(=O)N[C@@H](CCCCNc1ccc([N+](=O)[O-])c2nonc12)C(=O)N[C@@H](Cc1ccc(OP(=O)(O)O)cc1)C(=O)O` [NapFFK(NBD)Yp] ({Acetyl(2-naphthyl)}-FFK(NBD)[pY]-OH), the “peptide concentration under which cells are viable” value in series [1] is “under 100 μM”. Also, the “concentration above which cells experienced cell death” value in series [2] is “above 500 μM”.

The values above are taken from US12264352B2, “Method for enhancing extracellular vesicle production” (Research Foundation of the City University of New York, priority 2016, dated 2025).
